Assay results published in patent US20250313572A1, “MACROCYCLIC MCL-1 INHIBITORS AND METHODS OF USE” (AbbVie Inc., priority 2017, published 2025).
Like-named read-outs stand apart in the source and are kept apart here.

Assays:
GST-MCL-1 = GST-MCL-1 (Homo sapiens, UniProt Q07820); assay: TR-FRET MCL-1 binding assay (competition with probe F-Bak)
Procedure, shortened: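 Test compounds, 11 three-fold dilutions from 25 μM final, incubated 2 hours at room temperature with GST-MCL-1, F-Bak probe and Tb-anti-GST antibody. TR-FRET read at 340/35 nm excitation with 520/525 and 495/510 nm emission. Run without human serum and with 10% HS.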

[1] = system: AMO-1 human multiple myeloma tumor cell line; assay: AMO-1 cell viability assay (CellTiter-Glo, 24 hours); format: cell-based; conditions: Homo sapiens, AMO1, 24 h, read-out: AMO-1 Viability IC50 (μM, 10% FBS), 10% FBS, 24 hours of compound treatment
[2] = system: NCI-H929 human multiple myeloma tumor cell line; assay: NCI-H929 cell viability assay (CellTiter-Glo, 24 hours); format: cell-based; conditions: Homo sapiens, NCI-H929, 24 h, read-out: H929 Viability IC50 (μM, 10% FBS), 10% FBS, 24 hours of compound treatment
[3] = MCL-1 Binding Ki (nM, 10% HS), in the presence of 10% HS (human serum)
[4] = without HS, read-out: MCL-1 Binding Ki

Sequence of GST-MCL-1 (Q07820 whole entry): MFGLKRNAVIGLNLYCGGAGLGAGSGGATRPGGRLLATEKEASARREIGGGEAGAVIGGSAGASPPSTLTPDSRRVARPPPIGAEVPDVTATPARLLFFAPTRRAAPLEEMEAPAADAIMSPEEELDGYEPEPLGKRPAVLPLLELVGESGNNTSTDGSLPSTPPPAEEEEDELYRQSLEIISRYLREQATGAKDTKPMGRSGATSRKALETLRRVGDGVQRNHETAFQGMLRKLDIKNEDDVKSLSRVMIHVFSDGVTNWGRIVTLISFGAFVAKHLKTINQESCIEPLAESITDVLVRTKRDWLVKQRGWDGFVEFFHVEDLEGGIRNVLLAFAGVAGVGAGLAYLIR

**Q.** For `Cc1c(Cl)c2c(Cl)c(C)c1-c1c(-c3ccc(F)cc3)sc3ncnc(c13)O[C@@H](C(=O)O)Cc1cc(ccc1OCc1ccnc(C3(COCCOCCOC[C@H]4COCCO4)CCC3)n1)OC[C@@H](CN1CCN(C)CC1)O2` [Example 72, (7R,16R)-19,23-dichloro-10-{[2-(1-{[2-(2-{[(2R)-1,4-dioxan-2-yl]methoxy}ethoxy)ethoxy]methyl}cyclobutyl)pyrimidin-4-yl]methoxy}-1-(4-fluorophenyl)-20,22-dimethyl-16-[(4-methylpiperazin-1-yl)methyl]-7,8,15,16-tetrahydro-18,21-etheno-13,9-(metheno)-6,14,17-trioxa-2-thia-3,5-diazacyclononadeca[1,2,3-cd]indene-7-carboxylic Acid], which Ki (GST-MCL-1; [3]) is on record?
**A.** 0.184 nM

**Q.** And the Ki (GST-MCL-1; [4])?
**A.** 0.064 nM

**Q.** And the IC50 [1]?
**A.** 0.000331 µM

**Q.** And the IC50 [2]?
**A.** 0.000743 µM

**Q.** With `Cc1c(Cl)c2c(Cl)c(C)c1-c1c(-c3ccc(F)cc3)sc3ncnc(c13)O[C@@H](C(=O)O)Cc1cc(ccc1OCc1ccnc(C3CCS(=O)(=O)C3)n1)OC[C@@H](CN1CCN(C)CC1)O2` (stereo partly drawn) [Example 73, (7R,16R)-19,23-dichloro-10-{[2-(1,1-dioxo-1λ^6-thiolan-3-yl)pyrimidin-4-yl]methoxy}-1-(4-fluorophenyl)-20,22-dimethyl-16-[(4-methylpiperazin-1-yl)methyl]-7,8,15,16-tetrahydro-18,21-etheno-9,13-(metheno)-6,14,17-trioxa-2-thia-3,5-diazacyclononadeca[1,2,3-cd]indene-7-carboxylic Acid] as the compound, how does the Ki (GST-MCL-1; [3]) read?
**A.** 0.208 nM

**Q.** What about the Ki (GST-MCL-1; [4]) of the same compound?
**A.** 0.037 nM

**Q.** And the IC50 [1]?
**A.** 0.00262 µM

**Q.** And the IC50 [2]?
**A.** 0.00556 µM

**Q.** `COCCOCCOCCOCCOCCOCCOC1(c2nccc(COc3ccc4cc3C[C@H](C(=O)O)Oc3ncnc5sc(-c6ccc(F)cc6)c(c35)-c3c(C)c(Cl)c(c(Cl)c3C)O[C@H](CN3CCN(C)CC3)CO4)n2)CCCC1` [Example 74, (7R,16R)-19,23-dichloro-1-(4-fluorophenyl)-10-[(2-{1-[(2,5,8,11,14,17-hexaoxanonadecan-19-yl)oxy]cyclopentyl}pyrimidin-4-yl)methoxy]-20,22-dimethyl-16-[(4-methylpiperazin-1-yl)methyl]-7,8,15,16-tetrahydro-18,21-etheno-9,13-(metheno)-6,14,17-trioxa-2-thia-3,5-diazacyclononadeca[1,2,3-cd]indene-7-carboxylic Acid] was tested. Which Ki (GST-MCL-1; [3]) did it give?
**A.** 0.12 nM

**Q.** What about the Ki (GST-MCL-1; [4]) of the same compound?
**A.** 0.083 nM

**Q.** And the IC50 [1]?
**A.** 0.00153 µM

**Q.** And the IC50 [2]?
**A.** 0.00237 µM

**Q.** Which results are given for `Cc1c(Cl)c2c(Cl)c(C)c1-c1c(-c3ccc(F)cc3)sc3ncnc(c13)O[C@@H](C(=O)O)Cc1cc(ccc1OCc1ccnc(N3CCS(=O)(=O)CC3)n1)OC[C@@H](CN1CCN(C)CC1)O2` [Example 75, (7R,16R)-19,23-dichloro-10-{[2-(1,1-dioxo-1λ^6-thiomorpholin-4-yl)pyrimidin-4-yl]methoxy}-1-(4-fluorophenyl)-20,22-dimethyl-16-[(4-methylpiperazin-1-yl)methyl]-7,8,15,16-tetrahydro-18,21-etheno-9,13-(metheno)-6,14,17-trioxa-2-thia-3,5-diazacyclononadeca[1,2,3-cd]indene-7-carboxylic Acid]?
**A.** Ki (GST-MCL-1; [3]): 2.67 nM; Ki (GST-MCL-1; [4]): 0.375 nM; IC50 [1]: 0.00386 µM; IC50 [2]: 0.00914 µM

**Q.** How did the Ki (GST-MCL-1; [3]) turn out when `COCCOCCOCCOCCOCCOCC1(c2nccc(COc3ccc4cc3C[C@H](C(=O)O)Oc3ncnc5sc(-c6ccc(F)cc6)c(c35)-c3c(C)c(Cl)c(c(Cl)c3C)O[C@H](CN3CCN(C)CC3)CO4)n2)CCCC1` [Example 76, (7R,16R)-19,23-dichloro-1-(4-fluorophenyl)-10-({2-[1-(2,5,8,11,14,17-hexaoxaoctadecan-1-yl)cyclopentyl]pyrimidin-4-yl}methoxy)-20,22-dimethyl-16-[(4-methylpiperazin-1-yl)methyl]-7,8,15,16-tetrahydro-18,21-etheno-13,9-(metheno)-6,14,17-trioxa-2-thia-3,5-diazacyclononadeca[1,2,3-cd]indene-7-carboxylic Acid] was run?
**A.** 0.634 nM

**Q.** What about the Ki (GST-MCL-1; [4]) of the same compound?
**A.** 0.16 nM

**Q.** What about the IC50 [1] of the same compound?
**A.** 0.000409 µM

**Q.** What about the IC50 [2] of the same compound?
**A.** 0.000648 µM

**Q.** What does the source list for `Cc1c(Cl)c2c(Cl)c(C)c1-c1c(-c3ccc(F)cc3)sc3ncnc(c13)O[C@@H](C(=O)O)Cc1cc(ccc1OCc1ccnc(C3(COCCOC[C@H]4COCCO4)CCC3)n1)OC[C@@H](CN1CCN(C)CC1)O2` [Example 77, (7R,16R)-19,23-dichloro-10-[(2-{1-[(2-{[(2R)-1,4-dioxan-2-yl]methoxy}ethoxy)methyl]cyclobutyl}pyrimidin-4-yl)methoxy]-1-(4-fluorophenyl)-20,22-dimethyl-16-[(4-methylpiperazin-1-yl)methyl]-7,8,15,16-tetrahydro-18,21-etheno-13,9-(metheno)-6,14,17-trioxa-2-thia-3,5-diazacyclononadeca[1,2,3-cd]indene-7-carboxylic Acid]?
**A.** Ki (GST-MCL-1; [3]): 0.325 nM; Ki (GST-MCL-1; [4]): 0.089 nM; IC50 [1]: 0.000193 µM; IC50 [2]: 0.000405 µM

**Q.** What does the source list for `Cc1c2ccc(c1Cl)O[C@H](CN1CCN(C)CC1)COc1ccc(OCc3ccnc(N4CCC5(CC4)CC(F)(F)CO5)n3)c(c1)C[C@H](C(=O)O)Oc1ncnc3sc(-c4ccc(F)cc4)c-2c13` [Example 78, (7R,16R)-19-chloro-10-{[2-(3,3-difluoro-1-oxa-8-azaspiro[4.5]decan-8-yl)pyrimidin-4-yl]methoxy}-1-(4-fluorophenyl)-20-methyl-16-[(4-methylpiperazin-1-yl)methyl]-7,8,15,16-tetrahydro-18,21-etheno-13,9-(metheno)-6,14,17-trioxa-2-thia-3,5-diazacyclononadeca[1,2,3-cd]indene-7-carboxylic Acid]?
**A.** Ki (GST-MCL-1; [3]): 16 nM; Ki (GST-MCL-1; [4]): 2.28 nM; IC50 [1]: 0.000935 µM; IC50 [2]: 0.00552 µM

**Q.** With `COC1CC2(C1)CN(c1nccc(COc3ccc4cc3C[C@H](C(=O)O)Oc3ncnc5sc(-c6ccc(F)cc6)c(c35)-c3c(C)c(Cl)c(c(Cl)c3C)O[C@H](CN3CCN(C)CC3)CO4)n1)C2` [Example 79, (7R,16R)-19,23-dichloro-1-(4-fluorophenyl)-10-{[2-(6-methoxy-2-azaspiro[3,3]heptan-2-yl)pyrimidin-4-yl]methoxy}-20,22-dimethyl-16-[(4-methylpiperazin-1-yl)methyl]-7,8,15,16-tetrahydro-18,21-etheno-9,13-(metheno)-6,14,17-trioxa-2-thia-3,5-diazacyclononadeca[1,2,3-cd]indene-7-carboxylic Acid] as the compound, how does the Ki (GST-MCL-1; [3]) read?
**A.** 1 nM

**Q.** What about the Ki (GST-MCL-1; [4]) of the same compound?
**A.** 0.088 nM

**Q.** What about the IC50 [1] of the same compound?
**A.** 0.000418 µM

**Q.** And the IC50 [2]?
**A.** 0.00163 µM

**Q.** `Cc1c(Cl)c2c(Cl)c(C)c1-c1c(-c3ccc(F)cc3)sc3ncnc(c13)O[C@@H](C(=O)O)Cc1cc(ccc1OCc1ccnc(C(C)(C)COCCOC[C@H]3COCCO3)n1)OC[C@@H](CN1CCN(C)CC1)O2` [Example 80, (7R,16R)-19,23-dichloro-10-({2-[1-(2-{[(2R)-1,4-dioxan-2-yl]methoxy}ethoxy)-2-methylpropan-2-yl]pyrimidin-4-yl}methoxy)-1-(4-fluorophenyl)-20,22-dimethyl-16-[(4-methylpiperazin-1-yl)methyl]-7,8,15,16-tetrahydro-18,21-etheno-13,9-(metheno)-6,14,17-trioxa-2-thia-3,5-diazacyclononadeca[1,2,3-cd]indene-7-carboxylic Acid] was tested. Which Ki (GST-MCL-1; [3]) did it give?
**A.** 0.797 nM

**Q.** And the Ki (GST-MCL-1; [4])?
**A.** 0.107 nM

**Q.** And the IC50 [1]?
**A.** 0.000189 µM

**Q.** And the IC50 [2]?
**A.** 0.000954 µM
